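Compound exposure: 48 hours, 5 concentrations, 96-well plates. TGI marks complete inhibition of growth.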

Among the data in PubChem BioAssay (NCI) are TGI values, retold here.

What all share (test): DTP human tumour cell line panel, 48 h
Test [1] concerns IGROV1 ovarian.
For test [2], the system named is OVCAR-5 ovarian.
Test [3] concerns MDA-MB-435.
Test [4] relates to RXF 393 renal.
Test [5] has as its system CAKI-1 renal.
Test [6] relates to MALME-3M melanoma.
In test [7] the test system is SF-268 CNS.
Test [8] deals with NCI-H460 lung.
Test [9] deals with HCT-116 colon.
In test [10] the test system is MDA-N.
Test [11] deals with KM12 colon.
Test [12] concerns UO-31 renal.
Test [13] deals with MDA-MB-231 breast.
The subject of test [14] is OVCAR-4 ovarian.
In test [15] the test system is UACC-62 melanoma.

For the molecule `O=C(NCCN1CCOCC1)c1cn2c(ccc3sc4ccccc4c(=O)c32)n1`, the TGI in test [1], in test [2], in [3], in [4], in [5] and in test [6] was more than 100 µM in each case. The concentration for total growth inhibition (TGI) is more than 100 µM in [7]; 18.3 µM in test [8]; 29 µM in [9]; more than 100 µM in test [10]; more than 100 µM in test [11]; more than 100 µM in test [12]. For the same molecule, the total growth inhibition concentration (TGI) in [13] is more than 100 µM.

`CC1(C)OC2[C@@H](CO[C@@]3([C@@H](O)CCO)OC(C)(C)O[C@@H]23)O1` (some centres undefined): the total growth inhibition concentration (TGI) in [1], in [2], in test [3], in test [4], in [5] and in test [14] was more than 100 µM each time. Further, the total growth inhibition concentration (TGI) in test [7], in [8], in test [9], in test [10], in test [11] and in test [12] was more than 100 µM each time. Further, the total growth inhibition concentration (TGI) in test [15] and in [13] was more than 100 µM in each case.

For `O=C(O)CCC(=O)c1ccc2c(c1)C(C(=O)O)CC2` (centres undefined), the total growth inhibition concentration (TGI) in [1] is more than 100 µM; in test [2], more than 100 µM; in test [3], more than 100 µM; in test [4], 23.1 µM; in test [6], more than 100 µM; in test [14], more than 100 µM. The concentration for total growth inhibition (TGI) is more than 100 µM in [7]; more than 100 µM in test [8]; 2.25 µM in [9]; more than 100 µM in [10]; more than 100 µM in test [11]; more than 100 µM in test [12]. For the same molecule, the total growth inhibition concentration (TGI) in [15] and in [13] was more than 100 µM in each case.

Regarding `COC(=O)c1ccc(/C=C2\Oc3ccccc3C2=O)cc1`, the TGI in [1], in [3], in test [4], in [5], in [14] and in [7] was more than 100 µM in each case. For the same molecule, the TGI in test [8], in test [9], in test [10], in test [11], in test [12] and in test [15] was more than 100 µM in each case. The same molecule came in with a TGI in test [13] of more than 100 µM.

For `Cc1ccc(SC2C(=O)C3CC(OCc4ccccc4)C2(C)C3(C)C)cc1` (centres undefined), the TGI in [1], in test [2], in [3], in test [4], in [6] and in [7] was more than 100 µM in each case. Also, the TGI in [8], in [9], in test [10], in [11], in test [12] and in [15] was more than 100 µM each time. In addition, in test [13], the TGI is more than 100 µM.

In the case of `CCOC(=O)c1c(N=P(c2ccccc2)(c2ccccc2)c2ccccc2)nnc(-c2ccccc2)c1-c1ccccc1`, the total growth inhibition concentration (TGI) in test [1], in [2], in [3], in test [4], in test [6] and in test [14] was more than 100 µM throughout. Also, the TGI in test [7], in [8], in test [9], in test [10], in [11] and in test [12] was more than 100 µM throughout. Also, the TGI in test [15] and in test [13] was more than 100 µM throughout.

Take `O=C1c2ccccc2C(=O)c2cc(N=Nc3c(O)ccc4ccccc34)ccc21`: the concentration for total growth inhibition (TGI) in test [1], in test [2], in test [3], in test [4], in test [5] and in [6] was more than 100 µM each time. In addition, the TGI in test [14], in [7], in test [9], in test [10], in [11] and in [12] was more than 100 µM each time. Also, the TGI in test [15] and in test [13] was more than 100 µM in each case.

For `CCOC(=O)c1nnsc1N/N=C\c1ccc([N+](=O)[O-])cc1`, the concentration for total growth inhibition (TGI) in test [1], in [2], in [3], in test [4], in [6] and in test [14] was more than 100 µM in each case. The TGI in [7], in test [8], in test [9], in test [10], in [11] and in test [12] was more than 100 µM throughout. Besides, the TGI in test [15] and in test [13] was more than 100 µM in each case.

With `CCCCCCCCCCCCCCCCNC(=O)C(=O)/C=C(\O)c1ccc(C)cc1`, the total growth inhibition concentration (TGI) in test [1], in [2], in [3], in [4], in test [5] and in test [6] was more than 10 µM each time. The TGI in test [14], in [7], in test [8], in test [10], in [11] and in test [12] was more than 10 µM each time. In [13], this molecule registered a concentration for total growth inhibition (TGI) of more than 10 µM.

Regarding `CS(=O)(=O)c1nc(-c2cc3c(c(S(C)(=O)=O)n2)CCCC3)cc2c1CCCCC2`, the TGI in test [1] was 54.3 µM; in [2], more than 100 µM; in test [3] it was more than 100 µM; in test [4], more than 100 µM; in test [5] it was more than 100 µM; in [14], more than 100 µM. The TGI was 85.1 µM in [7]; more than 100 µM in test [9]; more than 100 µM in test [10]; more than 100 µM in test [11]; more than 100 µM in [15]; more than 100 µM in test [13].
